In patent publication US6767895B2 (priority 2000, dated 2004):

Columns and labels:
[1] = in vivo
[2] = system: mice; details: mouse, in vivo
[3] = system: goldfish; details: in vivo

| Substance | activity in formalin test (licking time) [1] | effects observed shortly after injection in mice [2] | effects observed shortly after injection in goldfish [3] |
| --- | --- | --- | --- |
| Gly-Xaa3-Ser-Phe-Cys-Lys-Ala-Asn-Gly-Lys-Xaa3-Cys-Ser-Xaa5-His-Ala-Asp-Cys-Cys-Asn-Cys-Cys-Leu-Ser-Gly-Ile-Cys-Lys-Xaa3-Ser-Thr-Asn-Val-Ile-Leu-Xaa3-Gly-Cys-Ser-Thr-Ser-Ser-Phe-Phe-Arg-Ile [R11.14] | active |  |  |
| Xaa2-Cys-Lys-Thr-Asn-Lys-Met-Ser-Cys-Ser-Leu-His-Xaa1-Xaa1-Cys-Cys-Arg-Phe-Arg-Cys-Cys-Phe-His-Gly-Lys-Cys-Gln-Thr-Ser-Val-Phe-Gly-Cys-Xaa4-Val-Asp-Xaa3 [R11.19] |  | running and jumping in short duration immediately followed by convulsion with back legs kicking, copius urination, coma and death | gasping (gills opening widely), followed by swimming backward or in circular and/or vertical motion, imbalanced swimming (body tilting), lying almost flat near the bottom and death |
